The values below come from patent US20140315797A1, “Novel N-Terminally Modified Insulin Derivatives” (priority 2010, published 2014).

Starred links: 1 amine or outer side, 2 acyl side, 3 side chain; linkers in the order of their positions; H or OH if unused. Positions of bridges follow the written chain, without caps; N, C: chain ends. Groups on a side chain read outwards from the residue. Chains are numbered I, II in the order given. No end group written: not given here. *: point of attachment. Phe(Nα-CONH2) = NC(=O)N[C@@H](Cc1ccccc1)C(=O)*; C20 diacid = O=C(O)CCCCCCCCCCCCCCCCCCC(=O)*; C18 diacid = O=C(O)CCCCCCCCCCCCCCCCC(=O)*; C16 diacid = O=C(O)CCCCCCCCCCCCCCC(=O)*; NMe2Phe = CN(C)[C@@H](Cc1ccccc1)C(=O)*; γGlu = O=C(O)[C@H](CCC(=O)[*:2])N[*:1]; Hydantoyl = NC(=O)NCC(=O)*; AEEA = NCCOCCOCC(=O)O; Me2Gly = CN(C)CC(=O)*

In series [1] the target is T1, human insulin receptor (IR-A) (Homo sapiens, UniProt P06213). Conditions: relative to affinity of human insulin; […] HSA in binding buffer. The procedure:
(§1) The affinity of the acylated insulin analogues of this invention for the human insulin receptor is determined by a SPA assay (Scintillation Proximity Assay) microtiterplate antibody capture assay. SPA-PVT antibody-binding beads, anti-mouse reagent (Amersham Biosciences, Cat No. PRNQ0017) are mixed with 25 ml of binding buffer (100 mM HEPES pH 7.8; 100 mM sodium chloride, 10 mM MgSO4, 0.025% Tween-20). Reagent mix for a single Packard Optiplate (Packard No. 6005190) is composed of 2.4 μl of a 1:5000 diluted purified recombinant human insulin receptor (either with or without exon 11), an amount of a stock solution of A14Tyr[^125I]-human insulin corresponding to 5000 cpm per 100 μl of reagent mix, 12 μl of a 1:1000 dilution of F12 antibody, 3 ml of SPA-beads and binding buffer to a total of 12 ml. A total of 100 μl reagent mix is then added to each well in the Packard Optiplate and a dilution series of the insulin derivative is made in the Optiplate from appropriate samples. The samples are then incubated for 16 hours while gently shaken. The phases are the then separated by centrifugation for 1 min and the plates counted in a Topcounter. The binding data were fitted using the nonlinear regression algorithm in the GraphPad Prism 2.01 (GraphPad Software, San Diego, Calif.) and affinities are expressed relative (in percentage (%)) to the affinity of human insulin.
A related assay is also used wherein the binding buffer also contains 1.5% HSA in order to mimic physiological conditions

For series [2], the target named is T1, human insulin receptor (IR-A). The series can be described thus: Insulin receptor affinity, SPA antibody capture assay, 0% HSA. Format: binding. The following applies: relative to affinity of human insulin. As for the experimental part:
as §1

The test system of a further series is duodenum lumen enzymes. The following applies: pH 7.4.
A short description of series [3]: Chemical stability of insulin analogues formulated in lipid formulations (UPLC purity, SEC HMWP). The format is physicochemical. Conditions: lipid formulation, 2 weeks, 25° C. The procedure:
Chemical stability of insulin analogues formulated in lipid formulations was assessed according to the protocol described here.
Composition of the formulation: […]
Insulin to be tested (75 μM)
The insulin to be tested (lyophilised from pH 7.5) is dissolved in propylenglycol in the dark for 16 hours. Diglycerol caprylate is added ad the mixture is stirred. Tween 20 is added and the mixture is stirred for 5 minutes. The mixture is gently agitated until it is homogeneous.
Extraction-mix: 1-butanol+0.1% (w/w) Tween80, 0.1M Na2HPO4/NaH2PO4 pH 7.0 • 1. The formulations are allowed to reach room temperature. • 2. To each Eppendorf tube 20 μl of the formulations are added. • 3. Add 490 μl 1-butanol followed by addition of 990 μl of the phosphate buffer. Vortex and incubate at RT for 30 min. • 4. Vortex again and centrifuge at RT at 14000 rpm for 20 min. Analyse the bottom aqueous phase for purity and HMWP formation.
Alternatively another extraction method can be used: • 1. The formulations are allowed to reach room temperature. • 2. To each Eppendorf tube 50 μl of the formulations are added. • 3. Add 950 μl of extraction buffer. Vortex well. Immediately after, load 800 μl (2×400 μl) for purification on the spin column. See spin protocol below. Ion Exchange on Q Spin Columns from Sartorius
(In the following all spin steps are for 5 min at 2000×g.) • 1. Apply 400 μl equilibration buffer to each spin column, and spin. Discard the flow-through. • 2. Apply 2×400 μl of each extracted sample. Spin the column between each application. Discard the flow-through. • 3. Apply 400 μl washing buffer to wash each spin column, and spin. Discard the wash. • 4. Apply 400 μl elution buffer to each spin column, and spin. Analyse the elution for purity and HMWP formation
Column: Waters BEH Shield RP18 UPLC column (2.1×100 mm, 1.7 μm)
Buffer A: 0.09M di-ammonium hydrogen phosphate pH 3.0, 10% (v/v) acetonitrile
Buffer B: 90% acetonitrile.
Column: Waters Insulin HMWP SEC column
Buffer: 500 mM NaCl, 10 mM NaH2PO4, 5 mM H3PO4, 50% (v/v) 2-propanol

T1 sequence (P06213 28-746 isoform P06213-2 limits assumed): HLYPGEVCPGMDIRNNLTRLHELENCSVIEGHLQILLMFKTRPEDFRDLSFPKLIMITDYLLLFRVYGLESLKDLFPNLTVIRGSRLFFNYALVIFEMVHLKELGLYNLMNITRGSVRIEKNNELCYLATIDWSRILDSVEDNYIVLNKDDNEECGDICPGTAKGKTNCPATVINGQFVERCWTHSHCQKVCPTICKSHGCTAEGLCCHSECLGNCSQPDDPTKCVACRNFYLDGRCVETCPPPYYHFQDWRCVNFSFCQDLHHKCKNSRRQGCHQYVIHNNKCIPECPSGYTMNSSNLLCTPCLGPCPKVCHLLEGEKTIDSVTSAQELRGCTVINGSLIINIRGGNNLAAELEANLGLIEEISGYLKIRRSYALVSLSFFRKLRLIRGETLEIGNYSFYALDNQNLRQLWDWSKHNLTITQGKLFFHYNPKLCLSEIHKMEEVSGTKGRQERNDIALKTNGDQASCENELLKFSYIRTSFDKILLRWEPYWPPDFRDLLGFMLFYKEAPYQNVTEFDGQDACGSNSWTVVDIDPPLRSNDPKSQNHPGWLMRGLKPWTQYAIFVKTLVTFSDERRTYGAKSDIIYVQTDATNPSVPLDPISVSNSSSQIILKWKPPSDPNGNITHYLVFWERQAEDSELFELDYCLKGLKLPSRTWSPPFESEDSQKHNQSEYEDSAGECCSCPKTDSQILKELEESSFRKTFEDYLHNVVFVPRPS
T1 sequence (P06213 763-1382 partner limits assumed): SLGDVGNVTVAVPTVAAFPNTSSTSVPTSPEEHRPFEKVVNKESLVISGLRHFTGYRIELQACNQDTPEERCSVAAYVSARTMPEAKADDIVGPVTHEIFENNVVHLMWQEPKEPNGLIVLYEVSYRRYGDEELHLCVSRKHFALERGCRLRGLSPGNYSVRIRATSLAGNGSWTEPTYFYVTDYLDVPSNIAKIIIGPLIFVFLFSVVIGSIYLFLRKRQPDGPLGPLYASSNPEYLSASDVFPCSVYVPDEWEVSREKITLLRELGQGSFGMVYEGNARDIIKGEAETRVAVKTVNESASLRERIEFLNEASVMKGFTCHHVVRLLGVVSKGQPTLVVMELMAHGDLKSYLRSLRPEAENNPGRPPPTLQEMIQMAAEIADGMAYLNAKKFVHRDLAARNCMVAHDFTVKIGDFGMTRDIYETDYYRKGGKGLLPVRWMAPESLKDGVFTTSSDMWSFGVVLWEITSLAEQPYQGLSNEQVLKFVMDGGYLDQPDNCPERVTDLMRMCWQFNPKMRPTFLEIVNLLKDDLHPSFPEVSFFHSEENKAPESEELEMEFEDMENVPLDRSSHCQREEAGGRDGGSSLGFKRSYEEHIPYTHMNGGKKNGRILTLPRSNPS
Experimental for duodenum lumen enzymes: Degradation of insulin analogs using duodenum lumen enzymes (prepared by filtration of duodenum lumen content) from SPD rats. The assay is performed by a robot in a 96 well plate (2 ml) with 16 wells available for insulin analogs and standards. Insulin analogs ˜15 μM are incubated with duodenum enzymes in 100 mM Hepes, pH=7.4 at 37° C., samples are taken after 1, 15, 30, 60, 120 and 240 min and reaction quenched by addition of TFA. Intact insulin analogs at each point are determined by RP-HPLC. Degradation half time is determined by exponential fitting of the data and normalized to half time determined for the reference insulins, A14E, B25H, desB30 human insulin or human insulin in each assay. The amount of enzymes added for the degradation is such that the half time for degradation of the reference insulin is between 60 min and 180 min.

For the substance “I: NMe2Phe-VNQHLCGSHLVEALYLVCGERGFHYPK([γGlu-C16 diacid]) / II: Me2Gly-IVEQCCTSICSLEQLENYCN (disulfide I:6-II:6, I:18-II:19, II:5-II:10) [Example 8, A1G(N^α,N^α-Dimethyl), A14E, B1F(N^α,N^α-dimethyl), B25H, desB27, B29K(N^εhexadecanedioyl-gGlu), desB30 human insulin]”, the “Relative IR-A affinity (@ […] HSA) (%)e” value in series [1] was found to be 0.18%. The “Relative IR-A affinity (@ 0% HSA) (%)” value in series [2] is 2.7%. In the series with duodenum lumen enzymes, the “Duodenum degradation. Relative stability vs. A14E, B25H, desB30 human insulin” value amounted to 6.8.
For “A1(N^αDiglycolyl), A14E, B1(N^αdiglycolyl), B25H, desB27, B29K(N^εoctadecanedioyl-gGlu-2xOEG), desB30 human insulin [Example 59]”, in series [3], the “HMWP formed (%) 2 weeks” value is 0.1% and the “Impurities formed (%) 2 weeks” value is given as 2.4%.
Take “I: {Phe(Nα-CONH2)}-VNQHLCGSHLVEALYLVCGERGFFYPK([AEEA-AEEA-γGlu-C16 diacid]) / II: Hydantoyl-IVEQCCTSICSLEQLENYCN (disulfide I:6-II:6, I:18-II:19, II:5-II:10) [Example 20]”: the “Relative IR-A affinity (@ […] HSA) (%)e” value in series [1] is 0.48%. In series [2], the “Relative IR-A affinity (@ 0% HSA) (%)” value came out at 4.7%. The “Duodenum degradation. Relative stability vs. A14E, B25H, desB30 human insulin” value in the series on duodenum lumen enzymes stood at 1.8.
As for “I: {Phe(Nα-CONH2)}-VNQHLCGSHLVEALYLVCGERGFFYPK([γGlu-C16 diacid]) / II: Hydantoyl-IVEQCCTSICSLEQLENYCN (disulfide I:6-II:6, I:18-II:19, II:5-II:10) [Example 19, A1G(N(alpha)carbamoyl), A14E, B1F(N(alpha)carbamoyl), desB27, B29K(N(eps)hexadecanedioyl-gGlu), desB30 human insulin]”, the “Relative IR-A affinity (@ […] HSA) (%)e” value in series [1] was found to be 0.14%. Also, the “Relative IR-A affinity (@ 0% HSA) (%)” value in series [2] turned out to be 5.0%. In addition, the “Duodenum degradation. Relative stability vs. A14E, B25H, desB30 human insulin” value in the series with duodenum lumen enzymes is 3.0.
For “I: {Phe(Nα-CONH2)}-VNQHLCGSHLVEALYLVCGERGFHYTPK([γGlu-C20 diacid]) / II: Hydantoyl-IVEQCCTSICSLEQLENYCN (disulfide I:6-II:6, I:18-II:19, II:5-II:10) [Example 14, A1(N^αCarbamoyl), A14E, B1(N^αCarbamoyl), B25H, B29K(Feicosanedioyl-gGlu), desB30 human insulin]” the same measures were 0.00%, 0.2% and 0.9.
The like results for “I: {Phe(Nα-CONH2)}-VNQHLCGSHLVEALYLVCGERGFFYPK([AEEA-AEEA-γGlu-C20 diacid]) / II: Hydantoyl-IVEQCCTSICSLEQLENYCN (disulfide I:6-II:6, I:18-II:19, II:5-II:10) [Example 29, A1G(N^αcarbamoyl), A14E, B1F(N^αcarbamoyl), desB27, B29K(N^εeicosanedioyl-gGlu-2xOEG), desB30 human insulin]” were, in that order, 0.20%, 2.6% and 3.0.
The like results for “I: NMe2Phe-VNQHLCGSHLVEALYLVCGERGFHYPK([γGlu-C18 diacid]) / II: Me2Gly-IVEQCCTSICSLEQLENYCN (disulfide I:6-II:6, I:18-II:19, II:5-II:10) [Example 4, A1(N^α, N^α-Dimethyl), A14E, B1(N^α, N^α-dimethyl), B25H, desB27, B29K(N^εoctadecanedioyl-gGlu), desB30 human insulin]” were, in that order, 0.03%, 1.7% and 8.6.
Regarding “I: {Phe(Nα-CONH2)}-VNQHLCGSHLVEALYLVCGERGFFYPK([γGlu-C18 diacid]) / II: Hydantoyl-IVEQCCTSICSLEQLENYCN (disulfide I:6-II:6, I:18-II:19, II:5-II:10) [Example 23, A1(N^αCarbamoyl), A14E, B1(N^αCarbamoyl), desB27, B29K(N^εoctadecanedioyl-gGlu), desB30 human insulin]”, the “Relative IR-A affinity (@ […] HSA) (%)e” value in series [1] is 0.04%. For the same substance, the “Relative IR-A affinity (@ 0% HSA) (%)” value in series [2] was 2.7%. Moreover, the “Duodenum degradation. Relative stability vs. A14E, B25H, desB30 human insulin” value with duodenum lumen enzymes is 6.6.
For “I: {Phe(Nα-CONH2)}-VNQHLCGSHLVEALHLVCGERGFFYPK([AEEA-AEEA-γGlu-C20 diacid]) / II: Hydantoyl-IVEQCCTSICSLEQLENYCN (disulfide I:6-II:6, I:18-II:19, II:5-II:10) [Example 30, A1G(N^αcarbamoyl), A14E, B1F(N^αcarbamoyl), B16H, desB27, B29K(N^εeicosanedioyl-gGlu-2xOEG), desB30 human insulin]”, the “Duodenum degradation. Relative stability vs. A14E, B25H, desB30 human insulin” value in the series with duodenum lumen enzymes amounted to 4.9.
With “I: {Phe(Nα-CONH2)}-VNQHLCGSHLVEALYLVCGERGFHYPK([AEEA-AEEA-γGlu-C18 diacid]) / II: Hydantoyl-IVEQCCTSICSLEQLENYCN (disulfide I:6-II:6, I:18-II:19, II:5-II:10) [Example 18, A1(N^αCarbamoyl), A14E, B1(N^αCarbamoyl), B25H, desB27, B29K(N^εoctadecandioyl-gGlu-2xOEG), desB30 human insulin]”, the “Relative IR-A affinity (@ […] HSA) (%)e” value in series [1] is 0.04%. For the same substance, the “Relative IR-A affinity (@ 0% HSA) (%)” value in series [2] is given as 0.4%. For the same substance, in the series on duodenum lumen enzymes, the “Duodenum degradation. Relative stability vs. A14E, B25H, desB30 human insulin” value is 5.6.
For “I: NMe2Phe-VNQHLCGSHLVEALHLVCGERGFHYTPK([AEEA-AEEA-γGlu-C20 diacid]) / II: Me2Gly-IVEQCCTSICSLEQLENYCN (disulfide I:6-II:6, I:18-II:19, II:5-II:10) [Example 7, A1(N^α,N^α-Dimethyl), A14E, B1(NP,N^α-dimethyl), B16H, B25H, B29K(N^εeicosanedioyl-gGlu-2xOEG), desB30 human insulin]” the same measures were 0.03%, 0.5% and 0.4.
The like results for “I: {Phe(Nα-CONH2)}-VNQHLCGSHLVEALYLVCGERGFFYPK([γGlu-C20 diacid]) / II: Hydantoyl-IVEQCCTSICSLEQLENYCN (disulfide I:6-II:6, I:18-II:19, II:5-II:10) [Example 21]” were, in that order, 0.07%, 1.3% and 6.2.
For “I: {Phe(Nα-CONH2)}-VNQHLCGSHLVEALYLVCGERGFHYTPK([γGlu-C16 diacid]) / II: Hydantoyl-IVEQCCTSICSLEQLENYCN (disulfide I:6-II:6, I:18-II:19, II:5-II:10) [Example 13, A1(N^αCarbamoyl), A14E, B1(N^αCarbamoyl), B25H, B29K(N^εhexadecanedioyl-gGlu), desB30 human insulin]” the same measures were 0.02%, 0.3% and 1.5.
